Among the test systems are XF498; DMS-114; DLD-1; DMS-273; M19-MEL; RXF 631; KM-20L2; SNB-78; HOP-18.
Holding throughout (test): growth of human tumour cells (NCI), 48 h

Each structure is given as a SMILES string.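 Following 48 hours of exposure in 96-well plates, responses at five concentrations were used to interpolate endpoints linearly. The concentration for 50% growth inhibition is given as GI50.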 Calls of active or inactive are those of the source. No stated cut-off is given here; in the data, active = GI50 up to about 1.1 µM and inactive = higher.

Consider 24 compounds from ChEMBL document CHEMBL1201862, “PubChem BioAssay data set” (2004).

As for `CCOC(=O)N[C@H]1CCc2cc(O)c(OC)c(OC)c2-c2ccc(SC)c(=O)cc21`, the GI50 with XF498 is 0.0261 µM (active); with DMS-114, 0.0193 µM (active); in the assay with DLD-1 it was 0.0351 µM (active); in the assay with DMS-273, 0.0149 µM (active); with M19-MEL it was 0.0189 µM (active); with RXF 631, 0.0207 µM (active). In addition, the GI50 with KM-20L2 is 0.0128 µM (active); in the assay on SNB-78 it was < 0.01 µM (active).
Regarding `COC(=O)C(C(=O)C(=O)Nc1nc2ccc(OC)cc2s1)c1cnc2ccccc2n1` (stereo unspecified), the GI50 in the assay on XF498, in the assay on DLD-1, with M19-MEL, in the assay with KM-20L2 and in the assay with SNB-78 was > 100 µM (inactive) throughout.
In the case of `CN1CCN(CCSC2Cc3cc(Cl)ccc3Sc3ccccc32)CC1` (stereo unspecified), the GI50 is 3.03 µM (inactive) with XF498; 9.1 µM (inactive) in the assay with HOP-18; 4.9 µM (inactive) with DMS-114; 3.7 µM (inactive) in the assay with DLD-1; 2.1 µM (inactive) in the assay on DMS-273; 2.13 µM (inactive) with M19-MEL. Also, the GI50 in the assay on KM-20L2 was 1.74 µM (inactive).
With `CCOc1ccc(NC2=NC(=O)C(CC(=O)Nc3ccc(Cl)cc3Cl)S2)cc1` (stereo unspecified), the GI50 with XF498, in the assay with DMS-114, in the assay with DLD-1, in the assay on DMS-273, in the assay with M19-MEL and in the assay on RXF 631 was > 100 µM (inactive) in each case. For the same compound, the GI50 in the assay with KM-20L2 and in the assay with SNB-78 was > 100 µM (inactive) throughout.
Turning to `O=C(Nc1nc2ncn(CCNCCn3cnc4nc(NC(=O)c5ccccc5)[nH]c(=O)c43)c2c(=O)[nH]1)c1ccccc1`, the GI50 in the assay on XF498, in the assay on HOP-18, in the assay on DLD-1, in the assay on DMS-273, in the assay with M19-MEL and with KM-20L2 was > 100 µM (inactive) throughout. Further, the GI50 with SNB-78 is > 100 µM (inactive).
Consider `CCCCOC(=O)NC(=O)c1cn(CCSCCOC(=O)NCCCCCCNC(=O)OCCSCCn2cc(C(=O)NC(=O)OCCCC)c(=O)[nH]c2=O)c(=O)[nH]c1=O`, for which the GI50 with HOP-18 is 31.6 µM (inactive); in the assay with DMS-114, 93.8 µM (inactive); in the assay with DLD-1, > 100 µM (inactive); with DMS-273, 95.5 µM (inactive); in the assay with M19-MEL, > 100 µM (inactive); in the assay with RXF 631, 38.4 µM (inactive). The GI50 is > 100 µM (inactive) in the assay on KM-20L2 and 90.4 µM (inactive) in the assay with SNB-78.
Regarding `FC(F)(F)c1ccccc1C1SCc2nc3ccccc3n21` (stereo unspecified), the GI50 with HOP-18 is > 100 µM (inactive); in the assay with DMS-114 it was 33 µM (inactive); with DLD-1, 52.2 µM (inactive); in the assay with DMS-273, 38 µM (inactive); in the assay on M19-MEL, 43.3 µM (inactive); in the assay with SNB-78, > 100 µM (inactive).
`COc1cc2ccc(CC(=O)O)cc2cc1OC`: the GI50 with HOP-18, with DMS-114, with DLD-1, in the assay on DMS-273, in the assay with M19-MEL and with RXF 631 was > 100 µM (inactive) throughout. The GI50 with KM-20L2 and with SNB-78 was > 100 µM (inactive) each time.
`COC(=O)[C@@]12CC(C(C)C)[C@H]3CC(C(=O)C=C1OC)[C@H]32` (stereo partly specified): the GI50 in the assay with XF498, in the assay with HOP-18, with DMS-114, with DLD-1, with DMS-273 and in the assay with M19-MEL was > 100 µM (inactive) each time. The GI50 in the assay with RXF 631, with KM-20L2 and with SNB-78 was > 100 µM (inactive) each time.
`CN(C)CCC(=O)N1C/C(=C\c2ccc(Cl)c(Cl)c2)C(=O)/C(=C/c2ccc(Cl)c(Cl)c2)C1`: the GI50 in the assay with XF498 was 1.12 µM (active); in the assay with HOP-18, 1.02 µM (active); with DMS-114, 0.452 µM (active); in the assay on DLD-1, 0.157 µM (active); in the assay on DMS-273 it was 0.15 µM (active); with M19-MEL, 0.427 µM (active). In addition, the GI50 in the assay on RXF 631 is 0.455 µM (active); in the assay with KM-20L2 it was 0.577 µM (active); in the assay on SNB-78 it was 0.476 µM (active).
With `O=[N+]([O-])c1cccc(C2=NN(c3ccccc3)C3c4cc(Br)ccc4OCC23)c1` (stereo unspecified), the GI50 in the assay with XF498, in the assay with HOP-18, in the assay with DMS-114, in the assay on DLD-1, with DMS-273 and in the assay on M19-MEL was > 100 µM (inactive) each time. Moreover, the GI50 in the assay on KM-20L2 and with SNB-78 was > 100 µM (inactive) throughout.
Turning to `Oc1ccccc1/C=N/c1ccccc1/N=C/c1ccccc1O`, the GI50 with XF498 was 47.6 µM (inactive); in the assay with DMS-114, 8.89 µM (inactive); in the assay on DMS-273, 85.9 µM (inactive); in the assay with M19-MEL, > 100 µM (inactive); in the assay on KM-20L2, > 100 µM (inactive).
Consider `Cc1ccc(C(=O)N(C2CCCCC2)C2CCCCC2)cc1/N=N/N(C)C`, for which the GI50 with DLD-1 was 14.7 µM (inactive); with DMS-273 it was 17.1 µM (inactive); with M19-MEL it was 19.1 µM (inactive); with SNB-78 it was 15.8 µM (inactive).
Turning to `O=C(O)c1ccc(/N=N/c2cc(S(=O)(=O)O)c3cccnc3c2O)cc1`, the GI50 is > 100 µM (inactive) in the assay with XF498; > 100 µM (inactive) with DMS-114; 63.4 µM (inactive) with DLD-1; > 100 µM (inactive) in the assay on DMS-273; > 100 µM (inactive) in the assay on M19-MEL; > 100 µM (inactive) in the assay on KM-20L2. For the same compound, the GI50 with SNB-78 was > 100 µM (inactive).
For the compound `Cc1ccc(-c2c(N)nc(NC#N)nc2CCC(=O)Nc2ccccc2[N+](=O)[O-])cc1`, the GI50 in the assay on HOP-18, in the assay on DMS-114, with DLD-1, with DMS-273, in the assay with M19-MEL and in the assay with KM-20L2 was > 100 µM (inactive) each time. Further, the GI50 with SNB-78 is > 100 µM (inactive).
With `NC(=O)c1cc(C2OC(CO)C(O)C2O)nn1-c1ccc([N+](=O)[O-])cc1` (stereo unspecified), the GI50 in the assay with XF498, with HOP-18, in the assay with DMS-114, with DLD-1, in the assay on DMS-273 and with KM-20L2 was > 100 µM (inactive) in each case. The GI50 in the assay on SNB-78 was 36.7 µM (inactive).
`N=CCCN(CCC=N)c1ccc(/C=C2\CN(NC(=O)c3ccc(Cl)cc3)C(c3ccccc3)=N2)cc1`: the GI50 in the assay with HOP-18, with DMS-114, in the assay on DLD-1, with DMS-273, in the assay with RXF 631 and with KM-20L2 was > 100 µM (inactive) in each case. In addition, the GI50 with SNB-78 was > 100 µM (inactive).
For the compound `CCOC(=O)C1C(c2ccccc2)=C(c2ccccc2)C(c2ccccc2)=C1c1ccccc1`, the GI50 is 21.9 µM (inactive) in the assay on XF498; 23.7 µM (inactive) in the assay with HOP-18; 27.8 µM (inactive) in the assay with DMS-114; > 100 µM (inactive) with DLD-1; 31.3 µM (inactive) in the assay with DMS-273; 41.4 µM (inactive) in the assay with M19-MEL. Further, the figures for the GI50 with RXF 631, in the assay on KM-20L2 and in the assay on SNB-78 were 50.5 µM (inactive), > 100 µM (inactive) and 27.5 µM (inactive), respectively.
Regarding `CCN1C(=O)C/C(=C\C(C)=O)Nc2ccccc21`, the GI50 with XF498 is > 100 µM (inactive); with DMS-114 it was > 100 µM (inactive); with DLD-1 it was 18.9 µM (inactive); in the assay on DMS-273, > 100 µM (inactive); with M19-MEL it was > 100 µM (inactive); in the assay with SNB-78, > 100 µM (inactive).
For the compound `O=c1c2ccccc2oc2ccccc12.Oc1cccc2cccnc12`, the results for the GI50 in the assay with DMS-114, with DLD-1 and with DMS-273 were 1.63 µM (inactive), 1.76 µM (inactive) and 1.94 µM (inactive), respectively.
Consider `O=C(O)CN(c1ccccc1)S(=O)(=O)c1ccc(Cl)cc1`, for which the GI50 with HOP-18, in the assay on DLD-1, in the assay with DMS-273, with M19-MEL, in the assay with RXF 631 and with KM-20L2 was > 100 µM (inactive) each time.
With `O=C(N[C@H](CO)[C@H](O)c1ccc([N+](=O)[O-])cc1)C(Cl)Cl` [CHLORAMPHENICOL], the GI50 in the assay with DMS-114, with DLD-1, in the assay on DMS-273, in the assay with M19-MEL and with KM-20L2 was > 100 µM (inactive) in each case.
As for `CN(C)/N=N/c1[nH]cnc1C(N)=O` [DACARBAZINE], the GI50 is 21.8 µM (inactive) with XF498; 15.5 µM (inactive) with HOP-18; 71.3 µM (inactive) in the assay with DMS-114; 56.9 µM (inactive) with DLD-1; 12.8 µM (inactive) with DMS-273; 64.4 µM (inactive) with M19-MEL. Moreover, the GI50 in the assay with RXF 631 is 54.1 µM (inactive); in the assay with KM-20L2, 53.6 µM (inactive); in the assay with SNB-78, 63.2 µM (inactive).
Regarding `C[C@@H]1O[C@@H](O[C@H]2[C@H](Oc3cc(O)c4c(=O)cc(-c5ccc(O)cc5)oc4c3)O[C@H](CO)[C@@H](O)[C@@H]2O)[C@H](O)[C@H](O)[C@H]1O` [RHOIFOLIN], the GI50 in the assay on XF498, in the assay with HOP-18, in the assay on DMS-114, in the assay with DLD-1, in the assay with DMS-273 and with M19-MEL was > 100 µM (inactive) throughout. Also, the GI50 in the assay on KM-20L2 and in the assay on SNB-78 was > 100 µM (inactive) throughout.
